Test: adverse events in healthy human volunteers (phase 1)
Format: in vivo
Details: n = 8
Text: Healthy men and women between 18 and 55 years of age (inclusive), who weighed at least 50 kg with a body mass index (BMI) between 18.0 and 31.0 kg/m^2 (inclusive) were enrolled in this study. Exclusion criteria were clinically significant illnesses, positive urine test for selected drugs of abuse, positive alcohol breath test at screening and upon check-in at the clinical site, positive hepatitis panel (including hepatitis B surface antigen [HBsAg] and anti-hepatitis C virus [HCV] antibodies), and positive screens for human immunodeficiency virus (HIV) antibody. This Phase 1 study was a randomized, double-blind, placebo-controlled study (clinicaltrials.gov: NCT04385420) consisting of two parts. Part 1 was a SAD study with 40 healthy volunteers who were randomized to active or placebo treatment in a 4:1 ratio (4 cohorts with n (Zapnometinib) = 8; n (placebo) = 2 in each cohort). Subjects receiving active treatment were treated with either 100 mg, 300 mg, 600 mg, or 900 mg zapnometinib. Part 2 was a MAD study with 30 healthy volunteers in three cohorts with the same randomization as in the SAD part (3 cohorts with n (Zapnometinib) = 8; n (placebo) = 2 in each cohort). Each subject in the MAD cohorts received doses of zapnometinib of either 100 mg, 300 mg, or 600 mg once daily for seven days, or placebo. The safety assessment in this study included monitoring of adverse events (AEs), clinical laboratory tests, electrocardiograms (ECG), vital signs, and physical examination. The study protocol and its amendments were reviewed by the Commissie voor Medische Ethiek ZNA, Antwerp, Belgium. This study was conducted in accordance with the ethical principles that have their origin in the Declaration of Helsinki and the International Council for Harmonization of Technical Requirements for Pharmaceuticals for Human Use (ICH) Note for Guidance on Good Clinical Practice (GCP) (CPMP/ICH/135/95) and with applicable local requirements.

**Q.** For `O=C(O)c1ccc(F)c(F)c1Nc1ccc(I)cc1Cl` [zapnometinib, 2-(2-Chloro-4-Iodophenylamino)-N-3,4-Difluoro benzoic acid], which Abdominal pain (100 mg) is on record?
**A.** 0 n (%)

**Q.** And the Back pain (100 mg)?
**A.** 0 n (%)

**Q.** And the Diarrhea (100 mg)?
**A.** 0 n (%)

**Q.** What about the Dizziness (100 mg) of the same molecule?
**A.** 0 n (%)

**Q.** What about the Erythema (100 mg) of the same molecule?
**A.** 0 n (%)

**Q.** What about the “Gastrointestinal Disorders” value (100 mg) of the same molecule?
**A.** 0 n (%)

**Q.** What about the Headache (100 mg) of the same molecule?
**A.** 0 n (%)

**Q.** And the Hepatic enzyme increase (100 mg)?
**A.** 0 n (%)

**Q.** And the “Infections and Infestations” value (100 mg)?
**A.** 0 n (%)

**Q.** What about the Investigations (100 mg) of the same molecule?
**A.** 0 n (%)

**Q.** And the Nasopharyngitis (100 mg)?
**A.** 0 n (%)

**Q.** What about the Neck pain (100 mg) of the same molecule?
**A.** 0 n (%)

**Q.** And the “Nervous System Disorders” value (100 mg)?
**A.** 0 n (%)

**Q.** What about the “Respiratory, thoracic and Mediastinal Disorders” value (100 mg) of the same molecule?
**A.** 0 n (%)

**Q.** And the Rhinorrhea (100 mg)?
**A.** 0 n (%)

**Q.** What about the “Skin and Subcutaneous Disorders” value (100 mg) of the same molecule?
**A.** 0 n (%)

**Q.** And the Throat irritation (100 mg)?
**A.** 0 n (%)

**Q.** What about the Abdominal pain (300 mg) of the same molecule?
**A.** 0 n (%)

**Q.** And the Back pain (300 mg)?
**A.** 1 (12.5) n (%)

**Q.** What about the Diarrhea (300 mg) of the same molecule?
**A.** 0 n (%)

**Q.** What about the Dizziness (300 mg) of the same molecule?
**A.** 0 n (%)

**Q.** What about the Erythema (300 mg) of the same molecule?
**A.** 1 (12.5) n (%)

**Q.** And the “Gastrointestinal Disorders” value (300 mg)?
**A.** 0 n (%)

**Q.** What about the Headache (300 mg) of the same molecule?
**A.** 3 (37.5) n (%)

**Q.** What about the Hepatic enzyme increase (300 mg) of the same molecule?
**A.** 1 (12.5) n (%)

**Q.** And the “Infections and Infestations” value (300 mg)?
**A.** 1 (12.5) n (%)

**Q.** And the Investigations (300 mg)?
**A.** 1 (12.5) n (%)

**Q.** And the Nasopharyngitis (300 mg)?
**A.** 1 (12.5) n (%)

**Q.** And the Neck pain (300 mg)?
**A.** 1 (12.5) n (%)

**Q.** What about the “Nervous System Disorders” value (300 mg) of the same molecule?
**A.** 3 (37.5) n (%)

**Q.** And the “Respiratory, thoracic and Mediastinal Disorders” value (300 mg)?
**A.** 1 (12.5) n (%)

**Q.** And the Rhinorrhea (300 mg)?
**A.** 1 (12.5) n (%)

**Q.** And the “Skin and Subcutaneous Disorders” value (300 mg)?
**A.** 1 (12.5) n (%)

**Q.** What about the Throat irritation (300 mg) of the same molecule?
**A.** 0 n (%)

**Q.** What about the Abdominal pain (600 mg) of the same molecule?
**A.** 0 n (%)

**Q.** What about the Back pain (600 mg) of the same molecule?
**A.** 0 n (%)

**Q.** And the Diarrhea (600 mg)?
**A.** 0 n (%)

**Q.** And the Dizziness (600 mg)?
**A.** 0 n (%)

**Q.** And the Erythema (600 mg)?
**A.** 0 n (%)

**Q.** And the “Gastrointestinal Disorders” value (600 mg)?
**A.** 0 n (%)

**Q.** And the Headache (600 mg)?
**A.** 1 (12.5) n (%)

**Q.** And the Hepatic enzyme increase (600 mg)?
**A.** 0 n (%)

**Q.** And the “Infections and Infestations” value (600 mg)?
**A.** 0 n (%)

**Q.** And the Investigations (600 mg)?
**A.** 0 n (%)

**Q.** What about the Nasopharyngitis (600 mg) of the same molecule?
**A.** 0 n (%)

**Q.** What about the Neck pain (600 mg) of the same molecule?
**A.** 0 n (%)

**Q.** And the “Nervous System Disorders” value (600 mg)?
**A.** 1 (12.5) n (%)

**Q.** And the “Respiratory, thoracic and Mediastinal Disorders” value (600 mg)?
**A.** 0 n (%)

**Q.** And the Rhinorrhea (600 mg)?
**A.** 0 n (%)

**Q.** And the “Skin and Subcutaneous Disorders” value (600 mg)?
**A.** 0 n (%)

**Q.** What about the Throat irritation (600 mg) of the same molecule?
**A.** 0 n (%)

**Q.** And the Abdominal pain (900 mg)?
**A.** 1 (12.5) n (%)

**Q.** What about the Back pain (900 mg) of the same molecule?
**A.** 0 n (%)

**Q.** And the Diarrhea (900 mg)?
**A.** 1 (12.5) n (%)

**Q.** What about the Dizziness (900 mg) of the same molecule?
**A.** 0 n (%)

**Q.** What about the Erythema (900 mg) of the same molecule?
**A.** 1 (12.5) n (%)

**Q.** What about the “Gastrointestinal Disorders” value (900 mg) of the same molecule?
**A.** 2 (25.0) n (%)

**Q.** What about the Headache (900 mg) of the same molecule?
**A.** 1 (12.5) n (%)

**Q.** What about the Hepatic enzyme increase (900 mg) of the same molecule?
**A.** 0 n (%)

**Q.** What about the “Infections and Infestations” value (900 mg) of the same molecule?
**A.** 0 n (%)

**Q.** And the Investigations (900 mg)?
**A.** 0 n (%)

**Q.** What about the Nasopharyngitis (900 mg) of the same molecule?
**A.** 0 n (%)

**Q.** And the Neck pain (900 mg)?
**A.** 0 n (%)

**Q.** And the “Nervous System Disorders” value (900 mg)?
**A.** 1 (12.5) n (%)

**Q.** What about the “Respiratory, thoracic and Mediastinal Disorders” value (900 mg) of the same molecule?
**A.** 1 (12.5) n (%)

**Q.** What about the Rhinorrhea (900 mg) of the same molecule?
**A.** 0 n (%)

**Q.** What about the “Skin and Subcutaneous Disorders” value (900 mg) of the same molecule?
**A.** 1 (12.5) n (%)

**Q.** And the Throat irritation (900 mg)?
**A.** 1 (12.5) n (%)

From publication PMC9240354, “Pharmacokinetics, Pharmacodynamics and Antiviral Efficacy of the MEK Inhibitor Zapnometinib in Animal Models and in Humans” (Frontiers in Pharmacology, 2022)
